Test results reported in US8093231B2, “Sulfonylethyl phosphorodiamidates” (Telik, Inc., priority 2004, dated 2012).

tested on: MX-1 (breast carcinoma); assay: Cytotoxicity/growth inhibition assay, MX-1; assay type: cell-based, human; conditions: MX-1 cells, 3 days culture, CellTiter-Glo, 0.1-200 μM tested; read-out: IC50 (MX-1)
Description: (§1) The human cancer cell lines DLD-1 (colorectal adenocarcinoma), LNCap (prostate carcinoma), and OVCAR-3 (ovarian carcinoma) were obtained from the American Type Culture Collection, Manassas, Va., U.S.A., and HL-60 (promyeloid myelocytic leukemia), MX-1 (breast carcinoma), P388, and P388ADR from the National Cancer Institute, Bethesda, Md., U.S.A. Carboplatin, doxorubicin, and melphalan were obtained from Sigma-Aldrich Chemical Company, St. Louis, Mo., U.S.A. The CellTiter-Glo assay kit was obtained from Promega Corporation, Madison, Wis., U.S.A., and the Cellular DNA Cytometric Analysis Reagent Kit from Roche Diagnostics Corporation, Indianapolis, Ind., U.S.A. Lambda DNA was obtained from New England Biolabs, Beverly, Mass., U.S.A., and SYBR-Gold from Molecular Probes, Inc., Eugene, Oreg., U.S.A. The DNeasy Tissue Kit was obtained from Qiagen Inc., Valencia, Calif., U.S.A., and AmpliTaq Gold DNA polymerase and PCR reagents from Applied Biosystems, Foster City, Calif., U.S.A. All products were used in accordance with manufacturer's directions. All assays were conducted in triplicate wells, with dimethyl sulfoxide (DMSO) solvent control. The extent of cell growth was expressed as a percentage of the signal from the solvent control wells.
(§2) Log-phase cells were trypsinized, collected by centrifugation, and resuspended in a small volume of fresh medium, and the density of viable cells was determined following Trypan Blue staining. Cells were diluted in fresh media (3×10^3 cells/mL for MX-1, 3×10^3 cells/mL for DLD-1, and 6×10^3 cells/mL for LNCap cells), the test compounds (concentrations between 0.1 and 200 μM, dissolved in DMSO, 50 μL) added immediately after dilution to achieve a final DMSO concentration of 0.5%, then the suspensions added at 150 μL/well to 96-well plates, and incubated for several hours to allow attachment in the case of adherent cells. The cells were cultured for approximately three doubling times (3 days for MX-1 and 4 days for DLD-1 and LNCap). The cells were then collected by centrifugation, and 100 μL of the culture supernatant was replaced by the CellTiter-Glo reagent. After incubation for 15 minutes at room temperature, and the plate was read with a luminometer.

| SMILES | IC50 |
| --- | --- |
| CC(C)(C(N)C(=O)O)S(=O)(=O)CCOP(=O)(N(CCCl)CCCl)N(CCCl)CCCl (stereo not drawn) [Compound 75A] | 33.1 µM |
| CC(C)(C(N)C(=O)O)S(=O)(=O)CCOP(=O)(N(CCCl)CCCl)N(CCCl)CCCl (stereo not drawn) [Compound 76A] | 23.2 µM |
| N[C@@H](CCS(=O)(=O)CCOP(=O)(N(CCCl)CCCl)N(CCCl)CCCl)C(=O)O [Compound 77A] | 21.3 µM |
| NC(=O)[C@@H](N)CS(=O)(=O)CCOP(=O)(N(CCCl)CCCl)N(CCCl)CCCl [Compound 78A] | 18.8 µM |
| COC(=O)[C@H](CS(=O)(=O)CCOP(=O)(N(CCCl)CCCl)N(CCCl)CCCl)NS(=O)(=O)c1ccccc1 [Compound 80A] | 27.1 µM |
| COC(=O)[C@H](CS(=O)(=O)CCOP(=O)(N(CCCl)CCCl)N(CCCl)CCCl)NS(=O)(=O)c1ccc(Cl)cc1 [Compound 81A] | 33.3 µM |
| N[C@@H](CS(=O)(=O)CCOP(=O)(N(CCCl)CCCl)N(CCCl)CCCl)C(=O)OCc1ccccc1 [Compound 82A] | 27.9 µM |
| CC(C)(C)OC(=O)N[C@@H](CS(=O)(=O)CCOP(=O)(N(CCCl)CCCl)N(CCCl)CCCl)C(=O)N1CCOCC1 [Compound 83A] | 12.9 µM |
| CC(C)NC(=O)[C@H](CS(=O)(=O)CCOP(=O)(N(CCCl)CCCl)N(CCCl)CCCl)NC(=O)OC(C)(C)C [Compound 84A] | 10.6 µM |
| CC(C)(C)OC(=O)N[C@@H](CS(=O)(=O)CCOP(=O)(N(CCCl)CCCl)N(CCCl)CCCl)C(=O)N1CCN(C(=O)c2ccco2)CC1 [Compound 85A] | 11.8 µM |
| CC(C)(C)OC(=O)N[C@@H](CS(=O)(=O)CCOP(=O)(N(CCCl)CCCl)N(CCCl)CCCl)C(=O)NCCO [Compound 86A] | 25.1 µM |
| N[C@@H](CS(=O)(=O)CCOP(=O)(N(CCCl)CCCl)N(CCCl)CCCl)C(=O)N1CCOCC1 [Compound 87A] | 19.5 µM |
| N[C@@H](CS(=O)(=O)CCOP(=O)(N(CCCl)CCCl)N(CCCl)CCCl)C(=O)NCCO [Compound 88A] | 17.9 µM |
| CC(C)NC(=O)[C@@H](N)CS(=O)(=O)CCOP(=O)(N(CCCl)CCCl)N(CCCl)CCCl [Compound 89A] | 22.2 µM |
| N[C@@H](CS(=O)(=O)CCOP(=O)(N(CCCl)CCCl)N(CCCl)CCCl)C(=O)N1CCN(C(=O)c2ccco2)CC1 [Compound 90A] | 23.8 µM |
| O=C(NCc1ccccc1)[C@H](CS(=O)(=O)CCOP(=O)(N(CCCl)CCCl)N(CCCl)CCCl)NS(=O)(=O)c1ccccc1 [Compound 91A] | 10.7 µM |
| CC(C)NC(=O)[C@H](CS(=O)(=O)CCOP(=O)(N(CCCl)CCCl)N(CCCl)CCCl)NS(=O)(=O)c1ccccc1 [Compound 92A] | 14.7 µM |
| O=C(c1ccco1)N1CCN(C(=O)[C@H](CS(=O)(=O)CCOP(=O)(N(CCCl)CCCl)N(CCCl)CCCl)NS(=O)(=O)c2ccccc2)CC1 [Compound 93A] | 19.3 µM |

tested on: DLD-1 (colorectal adenocarcinoma); assay: Cytotoxicity/growth inhibition assay, DLD-1; assay type: cell-based, human; conditions: DLD-1 cells, 4 days culture, CellTiter-Glo, 0.1-200 μM tested; read-out: IC50 (DLD-1)
Description: as §1, §2

| SMILES | IC50 |
| --- | --- |
| CC(C)(C(N)C(=O)O)S(=O)(=O)CCOP(=O)(N(CCCl)CCCl)N(CCCl)CCCl (stereo not drawn) [Compound 75A] | 7.6 µM |
| CC(C)(C(N)C(=O)O)S(=O)(=O)CCOP(=O)(N(CCCl)CCCl)N(CCCl)CCCl (stereo not drawn) [Compound 76A] | 6.6 µM |
| N[C@@H](CCS(=O)(=O)CCOP(=O)(N(CCCl)CCCl)N(CCCl)CCCl)C(=O)O [Compound 77A] | 8 µM |
| NC(=O)[C@@H](N)CS(=O)(=O)CCOP(=O)(N(CCCl)CCCl)N(CCCl)CCCl [Compound 78A] | 6.3 µM |
| COC(=O)[C@H](CS(=O)(=O)CCOP(=O)(N(CCCl)CCCl)N(CCCl)CCCl)NS(=O)(=O)c1ccccc1 [Compound 80A] | 10.7 µM |
| COC(=O)[C@H](CS(=O)(=O)CCOP(=O)(N(CCCl)CCCl)N(CCCl)CCCl)NS(=O)(=O)c1ccc(Cl)cc1 [Compound 81A] | 6.9 µM |
| N[C@@H](CS(=O)(=O)CCOP(=O)(N(CCCl)CCCl)N(CCCl)CCCl)C(=O)OCc1ccccc1 [Compound 82A] | 7.7 µM |
| CC(C)(C)OC(=O)N[C@@H](CS(=O)(=O)CCOP(=O)(N(CCCl)CCCl)N(CCCl)CCCl)C(=O)N1CCOCC1 [Compound 83A] | 6.7 µM |
| CC(C)NC(=O)[C@H](CS(=O)(=O)CCOP(=O)(N(CCCl)CCCl)N(CCCl)CCCl)NC(=O)OC(C)(C)C [Compound 84A] | 6 µM |
| CC(C)(C)OC(=O)N[C@@H](CS(=O)(=O)CCOP(=O)(N(CCCl)CCCl)N(CCCl)CCCl)C(=O)N1CCN(C(=O)c2ccco2)CC1 [Compound 85A] | 8.8 µM |
| CC(C)(C)OC(=O)N[C@@H](CS(=O)(=O)CCOP(=O)(N(CCCl)CCCl)N(CCCl)CCCl)C(=O)NCCO [Compound 86A] | 10.3 µM |
| N[C@@H](CS(=O)(=O)CCOP(=O)(N(CCCl)CCCl)N(CCCl)CCCl)C(=O)N1CCOCC1 [Compound 87A] | 9.7 µM |
| N[C@@H](CS(=O)(=O)CCOP(=O)(N(CCCl)CCCl)N(CCCl)CCCl)C(=O)NCCO [Compound 88A] | 9.5 µM |
| CC(C)NC(=O)[C@@H](N)CS(=O)(=O)CCOP(=O)(N(CCCl)CCCl)N(CCCl)CCCl [Compound 89A] | 8.5 µM |
| N[C@@H](CS(=O)(=O)CCOP(=O)(N(CCCl)CCCl)N(CCCl)CCCl)C(=O)N1CCN(C(=O)c2ccco2)CC1 [Compound 90A] | 10.4 µM |
| O=C(NCc1ccccc1)[C@H](CS(=O)(=O)CCOP(=O)(N(CCCl)CCCl)N(CCCl)CCCl)NS(=O)(=O)c1ccccc1 [Compound 91A] | 4.8 µM |
| CC(C)NC(=O)[C@H](CS(=O)(=O)CCOP(=O)(N(CCCl)CCCl)N(CCCl)CCCl)NS(=O)(=O)c1ccccc1 [Compound 92A] | 7.3 µM |
| O=C(c1ccco1)N1CCN(C(=O)[C@H](CS(=O)(=O)CCOP(=O)(N(CCCl)CCCl)N(CCCl)CCCl)NS(=O)(=O)c2ccccc2)CC1 [Compound 93A] | 13.2 µM |

tested on: LNCap (prostate carcinoma); assay: Cytotoxicity/growth inhibition assay, LNCap; assay type: cell-based, human; conditions: LNCap cells, 4 days culture, CellTiter-Glo, 0.1-200 μM tested; read-out: IC50 (LNCap)
Description: as §1, §2

| SMILES | IC50 |
| --- | --- |
| CC(C)(C(N)C(=O)O)S(=O)(=O)CCOP(=O)(N(CCCl)CCCl)N(CCCl)CCCl (stereo not drawn) [Compound 75A] | 185 µM |
| CC(C)(C(N)C(=O)O)S(=O)(=O)CCOP(=O)(N(CCCl)CCCl)N(CCCl)CCCl (stereo not drawn) [Compound 76A] | 99.7 µM |
| N[C@@H](CCS(=O)(=O)CCOP(=O)(N(CCCl)CCCl)N(CCCl)CCCl)C(=O)O [Compound 77A] | 140 µM |
| NC(=O)[C@@H](N)CS(=O)(=O)CCOP(=O)(N(CCCl)CCCl)N(CCCl)CCCl [Compound 78A] | ≥ 200 µM |
| COC(=O)[C@H](CS(=O)(=O)CCOP(=O)(N(CCCl)CCCl)N(CCCl)CCCl)NS(=O)(=O)c1ccccc1 [Compound 80A] | 80.2 µM |
| COC(=O)[C@H](CS(=O)(=O)CCOP(=O)(N(CCCl)CCCl)N(CCCl)CCCl)NS(=O)(=O)c1ccc(Cl)cc1 [Compound 81A] | 86.6 µM |
| N[C@@H](CS(=O)(=O)CCOP(=O)(N(CCCl)CCCl)N(CCCl)CCCl)C(=O)OCc1ccccc1 [Compound 82A] | 59.8 µM |
| CC(C)(C)OC(=O)N[C@@H](CS(=O)(=O)CCOP(=O)(N(CCCl)CCCl)N(CCCl)CCCl)C(=O)N1CCOCC1 [Compound 83A] | 27.8 µM |
| CC(C)NC(=O)[C@H](CS(=O)(=O)CCOP(=O)(N(CCCl)CCCl)N(CCCl)CCCl)NC(=O)OC(C)(C)C [Compound 84A] | 29.6 µM |
| CC(C)(C)OC(=O)N[C@@H](CS(=O)(=O)CCOP(=O)(N(CCCl)CCCl)N(CCCl)CCCl)C(=O)N1CCN(C(=O)c2ccco2)CC1 [Compound 85A] | 41.1 µM |
| CC(C)(C)OC(=O)N[C@@H](CS(=O)(=O)CCOP(=O)(N(CCCl)CCCl)N(CCCl)CCCl)C(=O)NCCO [Compound 86A] | 73.5 µM |
| N[C@@H](CS(=O)(=O)CCOP(=O)(N(CCCl)CCCl)N(CCCl)CCCl)C(=O)N1CCOCC1 [Compound 87A] | 136 µM |
| N[C@@H](CS(=O)(=O)CCOP(=O)(N(CCCl)CCCl)N(CCCl)CCCl)C(=O)NCCO [Compound 88A] | 126 µM |
| CC(C)NC(=O)[C@@H](N)CS(=O)(=O)CCOP(=O)(N(CCCl)CCCl)N(CCCl)CCCl [Compound 89A] | 140 µM |
| N[C@@H](CS(=O)(=O)CCOP(=O)(N(CCCl)CCCl)N(CCCl)CCCl)C(=O)N1CCN(C(=O)c2ccco2)CC1 [Compound 90A] | ≥ 200 µM |
| O=C(NCc1ccccc1)[C@H](CS(=O)(=O)CCOP(=O)(N(CCCl)CCCl)N(CCCl)CCCl)NS(=O)(=O)c1ccccc1 [Compound 91A] | 33.3 µM |
| CC(C)NC(=O)[C@H](CS(=O)(=O)CCOP(=O)(N(CCCl)CCCl)N(CCCl)CCCl)NS(=O)(=O)c1ccccc1 [Compound 92A] | 36.1 µM |
| O=C(c1ccco1)N1CCN(C(=O)[C@H](CS(=O)(=O)CCOP(=O)(N(CCCl)CCCl)N(CCCl)CCCl)NS(=O)(=O)c2ccccc2)CC1 [Compound 93A] | 59.1 µM |
